The source of these data is US9834521B2, “Choline kinase inhibitors” (ARIAD Pharmaceuticals, Inc., priority 2013, dated 2017).

A value given as a limit tells only on which side of the number the result lay.

T1 sequence (P35790 75-457): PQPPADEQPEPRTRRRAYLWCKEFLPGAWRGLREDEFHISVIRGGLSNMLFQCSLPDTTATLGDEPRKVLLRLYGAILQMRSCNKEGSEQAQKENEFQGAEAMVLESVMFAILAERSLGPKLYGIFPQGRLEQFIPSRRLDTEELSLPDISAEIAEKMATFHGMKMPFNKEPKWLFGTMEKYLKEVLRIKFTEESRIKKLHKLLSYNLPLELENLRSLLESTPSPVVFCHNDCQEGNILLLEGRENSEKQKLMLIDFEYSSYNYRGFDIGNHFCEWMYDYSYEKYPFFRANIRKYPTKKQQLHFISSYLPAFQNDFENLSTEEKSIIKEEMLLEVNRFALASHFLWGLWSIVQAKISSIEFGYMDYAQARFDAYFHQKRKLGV

The first experiment addresses T1, truncated form of human Choline kinase α1 that includes residues 75-457 (Homo sapiens, UniProt P35790).
T1 construct: made in house
The experiment in a line: Kinase Assay, coupled (ATP regeneration) LDH/PK assay, NADH absorbance. The experiment is classed as biochemical.
Details: not given
How it is done: Absorbance of NADH (340 nm) was measured over 30 min using a SpectraMax M5 (Molecular Devices). Initial reaction velocity (ΔA340/Δt) was calculated and plotted as a function of inhibitor concentration in a 2-fold dilution series. IC50 values were obtained by fitting the relative velocities to a dose-response model.
Regarding `CN1CCCN(Cc2ccc(-c3ccc(C(=O)N4CCCC4)cc3)c(C#N)c2)CC1` [Example 26, 4-((4-methyl-1,4-diazepan-1-yl)methyl)-4′-(pyrrolidine-1-carbonyl)-[1,1′-biphenyl]-2-carbonitrile], the IC50 – broadly, the concentration at which inhibition is half-maximal – was less than 2000 nM.

The experiment is the same for the next values; noted with them: Examples designated with an asterisk (*): version 1 of the Kinase Assay, 200 nM enzyme; read-out: IC50.
Consider `C=CCN1CCN(Cc2ccc(CN3CCCN(C)CC3)cc2)CC1` [Example 146, 1-(4-((4-allylpiperazin-1-yl)methyl)benzyl)-4-methyl-1,4-diazepane], for which the IC50 is less than 50000 nM. Same read-out and setting: as for `CN1CCCN(Cc2ccc(N3CCS(=O)(=O)CC3)cc2)CC1` [Example 145, 4-(4-((4-methyl-1,4-diazepan-1-yl)methyl)phenyl)thiomorpholine 1,1-dioxide], the figure is less than 50000 nM; as for `CN1CCCN(Cc2ccc(-c3ccccn3)cc2)CC1` [Example 141, 1-methyl-4-(4-(pyridin-2-yl)benzyl)-1,4-diazepane], less than 50000 nM; as for `COc1ccc(NCc2ccc(CN3CCCN(C)CC3)cc2)cc1` [Example 151, 4-methoxy-N-(4-((4-methyl-1,4-diazepan-1-yl)methyl)benzyl)aniline], less than 50000 nM.

Take `CN1CCCN(Cc2ccc(-c3ccc(C(=O)O)cc3)cc2)CC1` [Example 159, 4′-((4-methyl-1,4-diazepan-1-yl)methyl)-[1,1′-biphenyl]-4-carboxylic acid]: the IC50 is less than 50000 nM. The same measure, in the same setting: for `CN1CCCN(Cc2ccc(CN3CCN(CCO)CC3)cc2)CC1` [Example 147, 2-(4-(4-((4-methyl-1,4-diazepan-1-yl)methyl)benzyl)piperazin-1-yl)ethanol] the value was less than 50000 nM. The same measure, in the same setting: for `CN1CCCN(Cc2ccc(-c3cccc4ccccc34)cc2)CC1` [Example 136, 1-methyl-4-(4-(naphthalen-1-yl)benzyl)-1,4-diazepane] the value was less than 50000 nM. On to `CN1CCCN(Cc2ccc(-c3ccc(CC(=O)O)cc3)cc2)CC1` [Example 160, 2-(4′-((4-methyl-1,4-diazepan-1-yl)methyl)-[1,1′-biphenyl]-4-yl)acetic acid], for which the half-inhibitory concentration (IC50) is less than 50000 nM.

Take `CN1CCCN(Cc2ccc(-c3ccc(F)cc3)cc2)CC1` [Example 135, 1-((4′-fluoro-[1,1′-biphenyl]-4-yl)methyl)-4-methyl-1,4-diazepane]: the IC50 was less than 50000 nM.

Staying with this experiment, now noted: Examples not designated with an asterisk; footnote prints version 1 of the Kinase Assay; read-out: IC50.
Consider `CN1CCCN(Cc2ccc(-c3ccc(C(=O)N4CCCN(C)CC4)cc3F)cc2)CC1` [Example 59, (2-fluoro-4′-((4-methyl-1,4-diazepan-1-yl)methyl)-[1,1′-biphenyl]-4-yl)(4-methyl-1,4-diazepan-1-yl)methanone], for which the IC50 is less than 2000 nM. Take `CN(C)Cc1ccc(-c2ccc(CN3CCCN(C)CC3)cc2C#N)cc1` [Example 12, 4′-((dimethylamino)methyl)-4-((4-methyl-1,4-diazepan-1-yl)methyl)-[1,1′-biphenyl]-2-carbonitrile]: the 50% inhibitory concentration (IC50) was less than 500 nM. Still for that read-out and setting: as for `COCCN1CCN(C(=O)c2ccc(-c3ccc(CN4CCCN(C)CC4)cc3C#N)cc2)CC1` [Example 21, 4′-(4-(2-methoxyethyl)piperazine-1-carbonyl)-4-((4-methyl-1,4-diazepan-1-yl)methyl)-[1,1′-biphenyl]-2-carbonitrile], the figure is less than 500 nM; as for `Cc1cc(C(=O)N2CCCN(C)CC2)ccc1-c1ccc(CN2CCCN(C)CC2)cc1C#N` [Example 60, 2′-methyl-4-((4-methyl-1,4-diazepan-1-yl)methyl)-4′-(4-methyl-1,4-diazepane-1-carbonyl)-[1,1′-biphenyl]-2-carbonitrile], less than 2000 nM. On to `CN1CCCN(Cc2ccc(-c3cn[nH]c3)c(C#N)c2)CC1` [Example 112, 5-((4-methyl-1,4-diazepan-1-yl)methyl)-2-(1H-pyrazol-4-yl)benzonitrile], for which the half-maximal inhibitory concentration (IC50) is less than 500 nM. Turning to `CN1CCCN(Cc2ccc(-c3ccc(O)cc3)c(C#N)c2)CC1` [Example 107, 4′-hydroxy-4-((4-methyl-1,4-diazepan-1-yl)methyl)-[1,1′-biphenyl]-2-carbonitrile], the IC50 was less than 500 nM.

Regarding `CN1CCCN(Cc2ccc(-c3ccc(N)cc3)c(C#N)c2)CC1` [Example 113, 4′-amino-4-((4-methyl-1,4-diazepan-1-yl)methyl)-[1,1′-biphenyl]-2-carbonitrile], the IC50 is less than 2000 nM. The same measure, in the same setting: for `CN1CCCN(Cc2ccc(-c3ccc(C(=O)N4CCCN(C)CC4)cc3N(C)C)c(C#N)c2)CC1` [Example 62, 2′-(dimethylamino)-4-((4-methyl-1,4-diazepan-1-yl)methyl)-4′-(4-methyl-1,4-diazepane-1-carbonyl)-[1,1′-biphenyl]-2-carbonitrile] the value was less than 500 nM. For `CN1CCCN(Cc2ccc(-c3ccc(CN4CCCN(C)CC4)cc3CN)cc2)CC1` [Example 52, (4,4′-bis((4-methyl-1,4-diazepan-1-yl)methyl)-[1,1′-biphenyl]-2-yl)methanamine], the IC50 was less than 500 nM. With `CN1CCCN(Cc2ccc(-c3ccc(C(=O)N(C)CCO)cc3)c(C#N)c2)CC1` [Example 17, 2′-cyano-N-(2-hydroxyethyl)-N-methyl-4′-((4-methyl-1,4-diazepan-1-yl)methyl)-[1,1′-biphenyl]-4-carboxamide], the IC50 is less than 500 nM. On the same count and under the same terms, as for `CN1CCCN(Cc2ccc(-c3ccc(C(=O)N(C)C)cc3)c(C#N)c2)CC1` [Example 20, 2′-cyano-N,N-dimethyl-4′-((4-methyl-1,4-diazepan-1-yl)methyl)-[1,1′-biphenyl]-4-carboxamide], the figure is less than 50000 nM; as for `CN1CCCN(Cc2ccc(-c3cncc(N)c3)c(C#N)c2)CC1` [Example 124, 2-(5-aminopyridin-3-yl)-5-((4-methyl-1,4-diazepan-1-yl)methyl)benzonitrile], less than 50000 nM. Regarding `CN1CCCN(Cc2ccc(-c3ccc(C(=O)N4CCCN(C)CC4)cc3-c3ccc(CC#N)cc3)c(C#N)c2)CC1` [Example 67, 4″-(cyanomethyl)-4-((4-methyl-1,4-diazepan-1-yl)methyl)-4′-(4-methyl-1,4-diazepane-1-carbonyl)-[1,1′:2′,1″-terphenyl]-2-carbonitrile], the 50% inhibitory concentration (IC50) is less than 500 nM. The same measure, in the same setting: for `CN1CCCN(Cc2ccc(-c3ccc(C(N)=O)cc3F)c(C#N)c2)CC1` [Example 96, 2′-cyano-2-fluoro-4′-((4-methyl-1,4-diazepan-1-yl)methyl)-[1,1′-biphenyl]-4-carboxamide] the value was less than 500 nM; for `CN1CCCN(Cc2ccc(-c3ccc(C(F)(F)F)cc3CO)cc2)CC1` [Example 131, (4′-((4-methyl-1,4-diazepan-1-yl)methyl)-4-(trifluoromethyl)-[1,1′-biphenyl]-2-yl)methanol], less than 50000 nM; for `CN1CCCN(Cc2ccc(-c3ccc(CO)cc3)c(C#N)c2)CC1` [Example 108, 4′-(hydroxymethyl)-4-((4-methyl-1,4-diazepan-1-yl)methyl)-[1,1′-biphenyl]-2-carbonitrile], less than 500 nM. Same read-out and setting: as for `CC(=O)NNC(=O)CCc1ccc(-c2ccc(CN3CCCN(C)CC3)cc2)cc1` [Example 122, N′-acetyl-3-(4′-((4-methyl-1,4-diazepan-1-yl)methyl)-[1,1′-biphenyl]-4-yl)propanehydrazide], the figure is less than 2000 nM; as for `CON(C)C(=O)c1ccc(-c2ccc(CN3CCCN(C)CC3)cc2C#N)cc1` [Example 35, 2′-cyano-N-methoxy-N-methyl-4′-((4-methyl-1,4-diazepan-1-yl)methyl)-[1,1′-biphenyl]-4-carboxamide], less than 500 nM; as for `CN1CCCN(Cc2ccc(-c3ccc(C(=O)N4CCN(CCO)CC4)cc3)c(C#N)c2)CC1` [Example 18, 4′-(4-(2-hydroxyethyl)piperazine-1-carbonyl)-4-((4-methyl-1,4-diazepan-1-yl)methyl)-[1,1′-biphenyl]-2-carbonitrile], less than 500 nM. The same measure, in the same setting: for `CN1CCCN(Cc2ccc(-c3ccc(C(=O)N4CCN(C)CC4)cc3)c(C#N)c2)CC1` [Example 24, 4-((4-methyl-1,4-diazepan-1-yl)methyl)-4′-(4-methylpiperazine-1-carbonyl)-[1,1′-biphenyl]-2-carbonitrile] the value was less than 500 nM; for `CN1CCCN(Cc2ccc(-c3ccc(CN4CCCN(C)CC4)cc3CNC=O)cc2)CC1` [Example 53, N-((4,4′-bis((4-methyl-1,4-diazepan-1-yl)methyl)-[1,1′-biphenyl]-2-yl)methyl)formamide], less than 500 nM. On to `COc1cccc(-c2cc(C(=O)N3CCCN(C)CC3)ccc2-c2ccc(CN3CCCN(C)CC3)cc2C#N)c1` [Example 74, 3″-methoxy-4-((4-methyl-1,4-diazepan-1-yl)methyl)-4′-(4-methyl-1,4-diazepane-1-carbonyl)[1,1′:2′,1″-terphenyl]-2-carbonitrile], for which the IC50 was less than 500 nM. The same measure, in the same setting: for `CN1CCCN(Cc2ccc(-c3ccc(Oc4ccccc4N)cc3)c(C#N)c2)CC1` [Example 115, 4′-(2-aminophenoxy)-4-((4-methyl-1,4-diazepan-1-yl)methyl)-[1,1′-biphenyl]-2-carbonitrile] the value was less than 2000 nM; for `COC(=O)c1ccc(-c2ccc(CN3CCCN(C)CC3)cc2C#N)c(Br)c1` [Example 156, methyl 2-bromo-2′-cyano-4′-((4-methyl-1,4-diazepan-1-yl)methyl)-[1,1′-biphenyl]-4-carboxylate], less than 2000 nM; for `CN1CCCN(Cc2ccc(-c3ccc(-c4nnc(N)s4)cc3)cc2)CC1` [Example 116, 5-(4′-((4-methyl-1,4-diazepan-1-yl)methyl)-[1,1′-biphenyl]-4-yl)-1,3,4-thiadiazol-2-amine], less than 2000 nM. `CN1CCCN(Cc2ccc(-c3ccc(-c4nnn[nH]4)cc3)cc2)CC1` [Example 129, 1-((4′-(1H-tetrazol-5-yl)-[1,1′-biphenyl]-4-yl)methyl)-4-methyl-1,4-diazepane]: the IC50 is less than 50000 nM. On the same count and under the same terms, for `CN1CCCN(Cc2ccc(-c3ccc(CN4CCCN(C)CC4)c(C#N)c3)cc2)CC1` [Example 155, 4,4′-bis((4-methyl-1,4-diazepan-1-yl)methyl)-[1,1′-biphenyl]-3-carbonitrile] the value was less than 500 nM.
